# Marks after values point to notes of the source that are not given here.
# What was measured:
# Assay type in all cases: cell-based
# [1] = tested on: HIV-1 HXB2 mutants with site-directed mutations in RT; assay: Recombinant virus assay, drug susceptibility of mutants with site-directed RT mutations (Example 1); details: for Fold resistance: standard error in parentheses
# Experimental: Plasma samples were obtained from HIV-1-infected individuals from routine clinical practice in Europe and the US and were shipped to the laboratory on dry ice and stored at −70° C. until analysis. Phenotypic analysis was performed using the recombinant virus assay. See Kellam, P., and B. A. Larder. Antimicrob. Agents Chemother. 38:23-30 (1994); Hertogs, K., et al., Antimicrob. Agents Chemother. 42:269-276 (1998); Briefly, protease (PR) and reverse transcriptase (RT) coding sequences were amplified from patient-derived viral RNA with HIV-1 specific primers. After homologous recombination of amplicons into a PR-RT deleted proviral clone, the resulting recombinant viruses were harvested, titrated and used for in vitro susceptibility testing to antiretroviral drugs.
# For the modeling studies, mutations were generated in the RT gene of HXB2, a wild-type laboratory HIV-1 strain, using the QuikChange^J Site-Directed Mutagenesis Kit, […]^7, Stratagene Cloning systems, La Jolla, Calif., USA.
# [2] = tested on: patient-derived recombinant HIV-1 variants (protease/RT from patient plasma); assay: Recombinant virus assay (ANTIVIROGRAM), MT-4 cell viral cytopathic effect (CPE) protection assay, patient-derived recombinant viruses (Example 2); details: for level of resistance: samples with AZT and 3TC resistance mutations plus T69A/N or V175M
# Experimental: FIG. 1: Nucleoside analogue susceptibility of MDIR patient-derived recombinant HIV variants. Recombinant viruses were produced from patient plasma samples as described in Example 2 and tested for susceptibility to (a) d4T, (b) ddC and (c) ddl. […] Error bars indicate standard errors. Note that the total number (n=310) is higher than the 302 MDR samples described because a small minority were 69D/N and 75M double mutants and are represented in both groups.
# Viral RNA was extracted from 200 μL patient plasma using the QIAAMPV® Viral RNA Extraction Kit (Qiagen, Hilden, Germany), according to the manufacturers instructions. cDNA encompassing part of the pol gene was produced using EXPAND™ reverse transcriptase (Boehringer Mannheim) as described previously. See Hertogs K., et al., Antimicrob. Agents Chemother. 42:269-276 (1998). A 2.2 kb fragment encoding the protease and RT regions was then amplified by nested polymerase chain reaction (PCR) using PCR primers and conditions as described. Id. This genetic material was subsequently used in both phenotyping and genotyping experiments.
# MT-4 cells (Harada S., et al, Science 229:563-566(1985).) were co-transfected with pol gene PCR fragments and the protease-RT deleted HIV-1 molecular clone, pGEM3deltaPRT, as described. See Hertogs K., et al., Antimicrob. Agents Chemother. 42:269-276 (1998). […] Phenotypic susceptibility to nucleoside analogues was determined using an MT-4 cell viral cytopathic effect (CPE) protection assay as described. Id. Fold resistance values were derived by dividing the mean IC50 for a patient's recombinant virus by the mean IC50 for wild-type control virus (strain HXB2-D). The PCR products obtained from patient plasma samples were genotyped by dideoxynucleotide-based sequence analysis. Samples were sequenced using the BIGDYE™ terminator kit (Applied Biosystems, Inc. (ABI)) and resolved on an ABI 377 DNA sequencer.
# From this analysis, 302 samples were identified with four-fold or greater increases in IC50 (relative to a wild-type control virus) to at least four of these inhibitors. […]
# [3] = tested on: HIV-1 HXB2-D variants with site-directed RT mutations; assay: MT-4 cell CPE protection assay, HIV-1 variants constructed by site-directed mutagenesis (Example 2); details: for susceptibility: 69S-[S-S] insert plus AZT resistance mutations (210W and 215Y); for resistance: T69A or V75M in a background of AZT mutations
# Experimental: Mutations in the RT coding region were created by site-directed mutagenesis of a wild-type HXB2-D EcoRl-Pstl restriction enzyme fragment, encompassing the HIV-1 pol gene and cloned into pGEM3 (Promega). Single and multiple nucleotide changes were introduced into RT using the EXSITE™ mutagenesis kit (Strategene). All mutant clones were verified by DNA sequence analysis of the entire RT. PCR fragments were prepared from the mutated clones and the altered RT coding regions were transferred into the HIV-1 HXB2-D genetic background by homologous recombination as described above. The susceptibility of these recombinant viruses to nucleoside analogues was subsequently determined by the MT-4 cell CPE protection assay. Id.
structure (smiles),measurement,setting,value
"Nc1ccn([C@@H]2CS[C@H](CO)O2)c(=O)n1 [3TC, lamivudine]",Fold resistance,"[1]; SDM05: 41L, 210W, 211K, 214F, 215Y",4 (0.3)^c fold
same,Fold resistance,"[1]; SDM18: 41L, 67N, 210W, 211K, 214F, 215Y",2 (0.6) fold
same,Fold resistance,"[1]; SDM19: 41L, 67N, 69D, 210W, 211K, 214F, 215Y",4 (0.7) fold
same,Fold resistance,"[1]; SDM22: 184V, 41L, 210W, 211K, 214F, 215Y",78 (16.3) fold
same,Fold resistance,[1]; SDM23: 184V,82 (13.6) fold
same,Fold resistance,"[1]; SDM24: 184V, 69S-S-S, 210W, 211K, 214D, 215Y",85 (14.2) fold
same,Fold resistance,"[1]; SDM26: 184V, 41L, 67N, 210W, 211K, 214F, 215Y",72 (13.8) fold
same,Fold resistance,[1]; SDM28: 44D,1 (0.1) fold
same,Fold resistance,[1]; SDM29: 1181,2 (0.2) fold
same,Fold resistance,"[1]; SDM30: 44D, 1181",3 (0.3) fold
same,Fold resistance,"[1]; SDM31: 44D, 41L, 67N, 210W, 211K, 214F, 215Y",22 (2.5) fold
same,Fold resistance,"[1]; SDM32: 44D, 41L, 67N, 69D, 210W, 211K, 214F, 215Y",8 (2.2) fold
same,Fold resistance,"[1]; SDM33: 1181, 41L, 67N, 210W, 211K, 214F, 215Y",7 (1.0) fold
same,Fold resistance,"[1]; SDM34: 1181, 41L, 67N, 69D, 210W, 211K, 214F, 215Y",32 (3.9) fold
same,Fold resistance,"[1]; SDM35: 44D, 1181, 41L, 67N, 210W, 211K, 214F, 215Y",14 (1.4) fold
same,Fold resistance,"[1]; SDM36: 44D, 1181, 41L, 67N, 69D, 210W, 211K, 214D, 215Y",15 (2.1) fold
same,Fold resistance,"[1]; SDM38: 184V, 44D, 1181, 41L, 67N, 210W, 211K, 214F, 215Y",82 (13.5) fold
same,Fold resistance,"[1]; SDM39: 184V, 44D, 1181, 41L, 67N, 69D, 210W, 211K, 214F, 215Y",84 (13.9) fold
same,high resistance,[1]; caused by mutation 184V,> 62 fold
same,mean fold increase in IC50,"[2]; all four MDR groups (151 cluster, 69D/N, 75M, codon 69 insertions)",> 30 fold
"Cc1cn([C@H]2C=C[C@@H](CO)O2)c(=O)[nH]c1=O [d4T, stavudine]",level of resistance,[2],only modest levels of resistance
same,susceptibility,[3],decreased susceptibility
same,resistance,[3],little or no resistance
"Nc1ccn([C@H]2CC[C@@H](CO)O2)c(=O)n1 [ddC, zalcitabine]",level of resistance,[2],only modest levels of resistance
same,susceptibility,[3],decreased susceptibility
same,resistance,[3],little or no resistance

# Reference: US8574831B2, “Mutational profiles in HIV-1 reverse transcriptase correlated with phenotypic drug resistance” (Virco N.V., priority 2000, dated 2013)
